Values of other authors in patent publication US9353185B2, “Antibodies” (Affitech Research AS, priority 2010, dated 2016).

Key:
[1] = test system: acute myeloid leukaemia (AML); conditions: Mozobil pre-conditioning prior to MEC chemotherapy; patients available for first follow-up evaluation; cited from earlier work
[2] = test system: X4 HIV strains; conditions: in vitro and in vivo in clinical trials in humans; cited from earlier work
[3] = test system: Th2-mediated inflammatory response; conditions: Hu et al, 2006; cited from earlier work
[4] = test system: CXCR4 expressing cell lines; conditions: range of CXCR4 expressing cell lines; cited from earlier work
[5] = test system: AML and lymphoma tumor xenograft models; conditions: multiple AML and lymphoma tumor xenograft models; cited from earlier work

c1cc(CN2CCCNCCNCCCNCC2)ccc1CN1CCCNCCNCCCNCC1 [AMD3100, plerixafor]
complete remission (CR or CRi) [1]: 50% of patients
inhibition of entry of X4 HIV strains [2]: very high efficacy

c1ccc(CNCc2ccc(CN3CCCNCCNCCCNCC3)cc2)nc1 [AMD3465]
effect on Th2-mediated inflammatory response [3]: abrogate the Th2-mediated inflammatory response

MDX-1338: anti-human CXCR4-specific, fully human monoclonal antibody from Medarex; an IgG4
induction of apoptosis [4]: induces apoptosis
anti-tumor activity [5]: has anti-tumor activity
